The text below walks through data of PMC9640990 (Frontiers in Pharmacology, 2022).

The IC50 is the point on the concentration scale where inhibition reaches its midpoint. A higher IC50 goes with lower potency.

This assay addresses T1, hOCT2 (Homo sapiens, UniProt O15244).
T1 construct: host or cells: S2
T1 sequence (O15244 1-555): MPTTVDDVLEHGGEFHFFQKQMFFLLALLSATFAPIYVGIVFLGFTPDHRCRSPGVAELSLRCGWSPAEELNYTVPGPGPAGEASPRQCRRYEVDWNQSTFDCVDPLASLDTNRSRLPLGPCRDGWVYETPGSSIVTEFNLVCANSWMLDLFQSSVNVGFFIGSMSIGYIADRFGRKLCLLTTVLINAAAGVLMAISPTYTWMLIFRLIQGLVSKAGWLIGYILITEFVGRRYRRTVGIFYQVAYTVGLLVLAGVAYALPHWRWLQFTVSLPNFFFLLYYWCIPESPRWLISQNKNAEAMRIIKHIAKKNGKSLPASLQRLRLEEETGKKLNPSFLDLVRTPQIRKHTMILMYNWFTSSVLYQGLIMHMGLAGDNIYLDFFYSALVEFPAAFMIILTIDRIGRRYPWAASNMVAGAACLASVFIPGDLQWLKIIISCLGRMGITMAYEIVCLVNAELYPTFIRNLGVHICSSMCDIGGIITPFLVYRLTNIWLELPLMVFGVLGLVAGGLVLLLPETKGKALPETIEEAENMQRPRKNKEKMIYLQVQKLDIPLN
Briefly: Inhibition of hOCT2-mediated uptake of 14C-TEA in hOCT2-S2 cells. It counts as cell-based. As to conditions: 14C-TEA 5 µM. An excerpt: Considering the relative exposure characteristics, GA and PCA were selected as PK-marker and Q-marker components of PCE in previous studies ([Ma et al., 2015]; [Ma et al., 2016]; [Li et al., 2021b]). In this study, we investigated the concentration-dependent inhibitions of GA and PCA on multiple transporters, including OAT1, OAT3, OCT2, MDR1, and BCRP. Stably expressing cell lines of hOAT1-MDCK, hOAT3-MDCK, hOCT2-S2, hMDR1-MDCK, hBCRP-MDCK, and their mock cells were obtained from Japan Fuji Biomedical Co., Ltd. The cells were maintained in DMEM (Sigma) supplemented with 10% FCS, 1% non-essential amino acids (Sigma), and 2% L-glutamine. The medium for the Transwell® plates (Corning Costar, Cambridge, MA, United States) was supplemented with 0.1% gentamicin. […]
Briefly, the hOAT1-MDCK, hOAT3-MDCK, and hOCT2-S2 cells were trypsinized and suspended in the culture medium to provide a density of 1.5 × 10^5 cells/ml. […] The radioactive intensity of ^14C-PAH, ^3H-ES, and ^14C-TEA was measured using a Tri-Carb 2910TR scintillator (PerkinElmer, United States). Fluorescence was measured at 485 nm (excitation) and 546 nm (emission) for rhodamine 123, and 425 nm (excitation) and 528 nm (emission) for lucifer yellow. IC50 values were determined by employing GraphPad Prism 9.

`O=C(O)c1ccc(O)c(O)c1` [PCA, protocatechuic acid] returned an IC50 of 107 µM.
